The values that follow come from patent US20050014689A1, “Remedies for life style-related diseases or cibophobia and method of screening the same” (priority 2001, published 2005).

This data set has as its system clone 901 mRNA. Nature of the data set: Effect of intracerebroventricular antisense DNA administration on food consumption of normal and obese mice. Particulars: 30 μg/mouse into lateral ventricle. The data set is classed as in vivo. The text has this:
reagent: clone 901 antisense DNA was a mixture of two kinds of 25mer antisense DNAs relative to the vicinity of the gene initiation codon and synthesis, thiolation and HPLC purification were committed to Nihon Bio Service Co., Ltd.
Test animal: male C57BL/6N (hereinafter normal mouse) and C57BL db/db (hereinafter obese mouse) (SPF grade) were purchased from Charles River, Japan, Inc. and CLEA JAPAN, INC., respectively, and after preliminary breeding, normal mice were used for the test at the age of 9 weeks and the obese mice were used for the test at the age of 11 weeks.
Breeding environment: The mice were bred in a room controlled to a temperature of not lower than 20° C. and not higher than 26° C., relative humidity of not less than 30% and not more than 70%, lighting cycle of 8:00-20:00 lighting and 20:00-8:00 lights-out. During breeding, the mice were allowed a free access to a solid feed (CE-2, CLEA JAPAN) and sterile distilled water.
As an antisense DNA administration liquid, an artificial cerebrospinal fluid (0.166 g/L CaCl2, 7.014 g/L NaCl, 0.298 g/L KCl, 0.203 g/L MgCl2.6H2O, 2.10 g/L NaHCO3) containing 7.5 μg/μl of antisense DNA was prepared. In addition, an artificial cerebrospinal fluid free of antisense DNA was used as a solvent control liquid.
The normal mice and obese mice were divided into two groups each, and after fasting overnight, an antisense DNA was administered at 4 μl/mouse (30 μg/mouse in the amount of antisense DNA) to one group and a solvent control liquid (4 μl/mouse) was administered into the lateral ventricle of the other group, simultaneously with the lighting at 8:00 a.m.
Feeding of mice was resumed immediately after administration, and food consumption was calculated at 12 hours after administration. […] The food consumption from 12 hr to 24 hr after administration was calculated. […] In the normal mice, no effect of antisense DNA of clone 901 was found.

Regarding “antisense DNA of clone 901: mixture of two thiolated 25mer antisense DNAs (SEQ ID No 3 and No 4) to the vicinity of the clone 901 initiation codon (antisense 1 GCTTCGCAGCGCTCGCTGGGCGGCG; antisense 2 AGTGGGCCACAGCTCCACATGGCAG; DNA, all phosphorothioate, methylation of C not given here)”, the “effect on food consumption” value is on record as “no effect” (normal mice (C57BL/6N), 12 hr to 24 hr after administration); “food consumption-decreasing effect” (normal mice (C57BL/6N), immediately after administration to 12 hours); “suppressed to the same level with the normal mice” (obese mice (C57BL db/db), 12 hr to 24 hr after administration); “food consumption-decreasing effect” (obese mice (C57BL db/db), immediately after administration to 12 hours).
